Laboratory results reported in PubChem BioAssay (NCI).
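Tested at 5 concentrations; 48 h exposure; 96-well plates; endpoints linearly interpolated, else capped at highest concentration. GI50 = concentration required for 50% inhibition of growth. TGI: concentration producing complete growth inhibition.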

How the values were obtained:
Assay in all cases: growth of human tumour cells (NCI), 48 h
MCF7 breast = test system: MCF7 breast
SN12C renal = test system: SN12C renal
DU-145 prostate = test system: DU-145 prostate
HCT-116 colon = test system: HCT-116 colon
COLO 205 colon = test system: COLO 205 colon
786-0 renal = test system: 786-0 renal
HOP-92 NSCLC = test system: HOP-92 NSCLC
OVCAR-8 ovarian = test system: OVCAR-8 ovarian
NCI-H226 lung = test system: NCI-H226 lung
MDA-MB-468 breast = test system: MDA-MB-468 breast
HT29 colon = test system: HT29 colon
CAKI-1 renal = test system: CAKI-1 renal
SW-620 colon = test system: SW-620 colon
HCT-15 colon = test system: HCT-15 colon
T-47D breast = test system: T-47D breast
U251 CNS = test system: U251 CNS
SNB-75 CNS = test system: SNB-75 CNS
SK-MEL-2 melanoma = test system: SK-MEL-2 melanoma
MDA-MB-231 breast = test system: MDA-MB-231 breast
HL-60(TB) leukemia = test system: HL-60(TB) leukemia
NCI-H23 lung = test system: NCI-H23 lung
MDA-MB-435 = test system: MDA-MB-435
NCI-H460 lung = test system: NCI-H460 lung
TK-10 renal = test system: TK-10 renal
NCI/ADR-RES ovarian = test system: NCI/ADR-RES ovarian
SF-268 CNS = test system: SF-268 CNS
UO-31 renal = test system: UO-31 renal
UACC-257 melanoma = test system: UACC-257 melanoma
MALME-3M melanoma = test system: MALME-3M melanoma
HOP-62 NSCLC = test system: HOP-62 NSCLC
RXF 393 renal = test system: RXF 393 renal
CCRF-CEM leukemia = test system: CCRF-CEM leukemia
HS 578T breast = test system: HS 578T breast
NCI-H522 lung = test system: NCI-H522 lung
SK-MEL-28 melanoma = test system: SK-MEL-28 melanoma
HCC-2998 colon = test system: HCC-2998 colon
UACC-62 melanoma = test system: UACC-62 melanoma
ACHN renal = test system: ACHN renal
EKVX NSCLC = test system: EKVX NSCLC
IGROV1 ovarian = test system: IGROV1 ovarian
KM12 colon = test system: KM12 colon
OVCAR-3 ovarian = test system: OVCAR-3 ovarian
BT-549 breast = test system: BT-549 breast
K-562 leukemia = test system: K-562 leukemia
SK-MEL-5 melanoma = test system: SK-MEL-5 melanoma
SF-295 CNS = test system: SF-295 CNS
OVCAR-4 ovarian = test system: OVCAR-4 ovarian
RPMI-8226 leukemia = test system: RPMI-8226 leukemia
SF-539 CNS = test system: SF-539 CNS
M14 melanoma = test system: M14 melanoma
MOLT-4 leukemia = test system: MOLT-4 leukemia
OVCAR-5 ovarian = test system: OVCAR-5 ovarian
A549 NSCLC = test system: A549 NSCLC
A498 renal = test system: A498 renal
SK-OV-3 ovarian = test system: SK-OV-3 ovarian
SNB-19 CNS = test system: SNB-19 CNS
LOX IMVI melanoma = test system: LOX IMVI melanoma
PC-3 prostate = test system: PC-3 prostate

## CC(=C(c1ccc(OCCCN(C)C)cc1)c1ccc(OCCCN(C)C)cc1)c1ccccc1
MCF7 breast
  GI50: 0.213 µM
  TGI: 0.655 µM
SN12C renal
  GI50: 2.44 µM
  TGI: 5.29 µM
DU-145 prostate
  GI50: 1.1 µM
  TGI: 3.82 µM
HCT-116 colon
  GI50: 0.37 µM
  TGI: 0.847 µM
COLO 205 colon
  GI50: 0.396 µM
  TGI: 0.744 µM
786-0 renal
  GI50: 0.352 µM
  TGI: 0.736 µM
HOP-92 NSCLC
  GI50: 0.508 µM
  TGI: 3.28 µM
OVCAR-8 ovarian
  GI50: 0.979 µM
  TGI: 3.76 µM
NCI-H226 lung
  GI50: 3.89 µM
  TGI: 8.05 µM
MDA-MB-468 breast
  GI50: 0.358 µM
  TGI: 0.805 µM
HT29 colon
  GI50: 0.385 µM
  TGI: 0.917 µM
CAKI-1 renal
  GI50: 0.515 µM
  TGI: 1.76 µM
SW-620 colon
  GI50: 0.339 µM
  TGI: 0.708 µM
HCT-15 colon
  GI50: 0.635 µM
  TGI: 2.29 µM
T-47D breast
  GI50: 0.327 µM
  TGI: 0.688 µM
U251 CNS
  GI50: 0.461 µM
  TGI: 1.02 µM
SNB-75 CNS
  GI50: 0.804 µM
  TGI: 4.09 µM
SK-MEL-2 melanoma
  GI50: 3.01 µM
  TGI: 6.16 µM
MDA-MB-231 breast
  GI50: 0.42 µM
  TGI: 0.907 µM
HL-60(TB) leukemia
  GI50: 0.389 µM
  TGI: 1.05 µM
NCI-H23 lung
  GI50: 2.48 µM
  TGI: 5.3 µM
MDA-MB-435
  GI50: 0.47 µM
  TGI: 1.15 µM
NCI-H460 lung
  GI50: 0.431 µM
  TGI: 1.03 µM
TK-10 renal
  GI50: 0.714 µM
  TGI: 3.56 µM
NCI/ADR-RES ovarian
  GI50: 1.77 µM
  TGI: 4.65 µM
SF-268 CNS
  GI50: 0.609 µM
  TGI: 3.1 µM
UO-31 renal
  GI50: 0.36 µM
  TGI: 0.733 µM
UACC-257 melanoma
  GI50: 0.36 µM
  TGI: 0.699 µM
MALME-3M melanoma
  GI50: 0.343 µM
  TGI: 0.64 µM
HOP-62 NSCLC
  GI50: 2.62 µM
  TGI: 5.93 µM
RXF 393 renal
  GI50: 0.339 µM
  TGI: 0.874 µM
CCRF-CEM leukemia
  GI50: 0.438 µM
  TGI: 1.13 µM
HS 578T breast
  GI50: 0.448 µM
  TGI: 1.78 µM
NCI-H522 lung
  GI50: 0.354 µM
  TGI: 0.746 µM
SK-MEL-28 melanoma
  GI50: 0.376 µM
  TGI: 0.685 µM
HCC-2998 colon
  GI50: 0.57 µM
  TGI: 2.08 µM
UACC-62 melanoma
  GI50: 0.377 µM
  TGI: 0.709 µM
ACHN renal
  GI50: 0.473 µM
  TGI: 1.04 µM
EKVX NSCLC
  GI50: 2.43 µM
  TGI: 5.28 µM
IGROV1 ovarian
  GI50: 1.17 µM
  TGI: 4.02 µM
KM12 colon
  GI50: 0.771 µM
  TGI: 2.69 µM
OVCAR-3 ovarian
  GI50: 0.454 µM
  TGI: 1.28 µM
BT-549 breast
  GI50: 2.44 µM
  TGI: 5.42 µM
K-562 leukemia
  GI50: 0.621 µM
  TGI: 22 µM
SK-MEL-5 melanoma
  GI50: 0.363 µM
  TGI: 0.679 µM
SF-295 CNS
  GI50: 0.403 µM
  TGI: 0.848 µM
OVCAR-4 ovarian
  GI50: 0.571 µM
  TGI: 1.8 µM
RPMI-8226 leukemia
  GI50: 0.608 µM
  TGI: 1.82 µM
SF-539 CNS
  GI50: 0.353 µM
  TGI: 0.66 µM
M14 melanoma
  GI50: 0.386 µM
  TGI: 0.768 µM
MOLT-4 leukemia
  GI50: 0.627 µM
  TGI: 2.43 µM
OVCAR-5 ovarian
  GI50: 1.16 µM
  TGI: 4.11 µM
A549 NSCLC
  GI50: 0.753 µM
  TGI: 3.18 µM
A498 renal
  GI50: 3.9 µM
  TGI: 7.22 µM
SK-OV-3 ovarian
  GI50: 3.51 µM
  TGI: 6.79 µM
SNB-19 CNS
  GI50: 0.835 µM
  TGI: 3.24 µM
LOX IMVI melanoma
  GI50: 0.38 µM
  TGI: 0.706 µM
PC-3 prostate
  GI50: 0.818 µM
  TGI: 3.28 µM
